Each block holds one molecule with its values, some of them ahead of it. Active and inactive are the calls of the source. No cut-off for these calls is given here.
Tests used:
[1] = Antiproliferative activity against human HEK293 cells assessed as reduction in cell viability incubated for 72 hrs by CelltiterGlo luminescent assay; type: toxicity, cell-based
[2] = Antiproliferative activity against human Hermes 3C cells assessed as reduction in cell viability incubated for 72 hrs by CelltiterGlo luminescent assay; type: toxicity, cell-based
A-375 = test: Antiproliferative activity against human A-375 cells assessed as reduction in cell viability incubated for 72 hrs by CelltiterGlo luminescent assay; conditions: A-375, 72 h
MDA-MB-468 = test: cells; conditions: Homo sapiens, MDA-MB-468, 72 h
Description: Antiproliferative activity against human MDA-MB-468 cells assessed as reduction in cell viability incubated for 72 hrs by CelltiterGlo luminescent assay

[3] = Antiproliferative activity against human RPE-1 cells assessed as reduction in cell viability incubated for 72 hrs by CelltiterGlo luminescent assay; type: toxicity, cell-based; conditions: RPE-1 cells (TERT-RPE1)
HeLa [4] = test: Antiproliferative activity against human HeLa cells assessed as reduction in cell viability incubated for 72 hrs by MTT assay; type: functional, cell-based
HT-1080 = test: Antiproliferative activity against human HT-1080 cells assessed as reduction in cell viability incubated for 72 hrs by CelltiterGlo luminescent assay; conditions: HT-1080, 72 h
HeLa [5] = test: Antiproliferative activity against human HeLa cells assessed as inhibition of cell growth incubated for 72 hrs in presence of verapamil by MTT assay; type: functional, cell-based
BT-474 = test: Antiproliferative activity against human BT-474 cells assessed as reduction in cell viability incubated for 72 hrs by CelltiterGlo luminescent assay; conditions: BT-474, 72 h
HeLa [6] = test: Antiproliferative activity against human HeLa cells assessed as reduction in cell viability incubated for 72 hrs by CelltiterGlo luminescent assay; type: functional, cell-based
MCF7 = test: Antiproliferative activity against human MCF7 cells assessed as reduction in cell viability incubated for 72 hrs by CelltiterGlo luminescent assay; type: functional, cell-based; conditions: MCF7, 72 h
[7] = Antiproliferative activity against human WM1366 cells assessed as reduction in cell viability incubated for 72 hrs by CelltiterGlo luminescent assay; conditions: WM1366, 72 h
CAKI-1 = test: Antiproliferative activity against human CAKI-1 cells assessed as reduction in cell viability incubated for 72 hrs by CelltiterGlo luminescent assay; conditions: CAKI-1, 72 h
cells = conditions: Homo sapiens, MDA-MB-468, 72 h
[8] = Antiproliferative activity against human Melmet 5 cells assessed as reduction in cell viability incubated for 72 hrs by CelltiterGlo luminescent assay; conditions: Melmet 5, 72 h
MES-SA = test: Antiproliferative activity against human MES-SA cells assessed as reduction in cell viability incubated for 72 hrs by CelltiterGlo luminescent assay
HeLa [9] = test: Antiproliferative activity against human HeLa cells assessed as inhibition of cell growth incubated for 72 hrs in absence of verapamil by MTT assay; type: functional, cell-based
Tubulin (Homo sapiens) = Tubulin (Homo sapiens) (UniProt P68371+Q9H4B7+P0DPH7+P68366+Q13509+Q71U36+P04350+Q3ZCM7+P07437+P68363+Q9BQE3+Q6PEY2+Q13885+Q9BVA1+Q9BUF5); test: Inhibition of tubulin polymerization in human MES-SA cells assessed as appearance of spherical shaped cells at 10 nM incubated for 24 hrs by DAPI staining based confocal microscopy analysis; type: cell-based

SMILES: CC(=O)O[C@H]1C(=O)[C@@]2(C)[C@H]([C@H](OC(=O)c3ccccc3)[C@]3(O)C[C@H](OC(=O)[C@H](O)[C@@H](NC(=O)c4ccccc4)c4ccccc4)C(C)=C1C3(C)C)[C@]1(OC(C)=O)CO[C@@H]1C[C@@H]2O [PACLITAXEL]
- IC50 at 72 h [1]: 26.8 nM
- IC50 at 72 h [2]: 1 nM

- IC50 (A-375): 363 nM
- IC50 (MDA-MB-468): 161 nM
- IC50 (HeLa [4]): 109 nM
- IC50 (HT-1080): 104 nM
- IC50 (HeLa [5]): 105 nM
- IC50 (BT-474): 792 nM
- IC50 (HeLa [6]): 108 nM
- IC50 (MCF7): 347 nM
- IC50 (cells): 145 nM
- IC50 (HeLa [9]): 123 nM
SMILES: CCN(c1ccc2c(ccn2C)c1)S(=O)(=O)c1cc(OC)c(OC)c(OC)c1
- IC50 at 72 h [3]: 335 nM
- IC50 at 72 h [1]: 323 nM
- IC50 at 72 h [2]: 965 nM
- IC50 [7]: 517 nM
- IC50 (CAKI-1): 158 nM
- IC50 [8]: 96.2 nM
- IC50 (MES-SA): 148 nM

- IC50 (HeLa [4]): 974 nM
SMILES: COc1cc(S(=O)(=O)N(CC#N)c2ccc3c(c2)C=CC3CC#N)cc(OC)c1OC (stereo unspecified)

- IC50 (HeLa [4]): 275 nM
SMILES: COc1cc(S(=O)(=O)N(CC(N)=O)c2ccc3c(ccn3C)c2)cc(OC)c1OC

- IC50 (HeLa [4]): 114 nM
SMILES: COc1cc(S(=O)(=O)N(C)c2ccc3c(c2)C=CC3CC#N)cc(OC)c1OC (stereo unspecified)

SMILES: COc1cc2c(c(OC)c1OC)-c1ccc(OC)c(=O)cc1[C@@H](NC(C)=O)CC2 [COLCHICINE]
- IC50 (HeLa [5]): 9.3 nM
- IC50 (HeLa [9]): 16.7 nM

- IC50 (A-375): 245 nM
- IC50 (MDA-MB-468): 101 nM
- IC50 (HeLa [4]): 102 nM
- IC50 (HT-1080): 69.2 nM
- IC50 (HeLa [5]): 55.4 nM
- IC50 (BT-474): 126 nM
- IC50 (HeLa [6]): 93 nM
- IC50 (MCF7): 108 nM
- IC50 (cells): 284 nM
- IC50 (HeLa [9]): 102 nM
SMILES: COc1cc(S(=O)(=O)Nc2ccc3c(c2)c(C(N)=O)cn3C)cc(OC)c1OC
- IC50 at 72 h [3]: 173 nM
- IC50 at 72 h [1]: 492 nM
- IC50 at 72 h [2]: 466 nM
- IC50 [7]: 278 nM
- IC50 (CAKI-1): 310 nM
- IC50 [8]: 29.5 nM
- IC50 (MES-SA): 99.9 nM

- IC50 (A-375): 49.8 nM
- IC50 (MDA-MB-468): 15.2 nM
- IC50 (HeLa [4]): 22.7 nM
- IC50 (HT-1080): 14 nM
- IC50 (HeLa [5]): 52.4 nM
- IC50 (BT-474): 66.4 nM
- IC50 (HeLa [6]): 18.4 nM
- IC50 (MCF7): 15.3 nM
- IC50 (cells): 14.7 nM
- IC50 (HeLa [9]): 57.4 nM
SMILES: COc1cc(S(=O)(=O)N(CC#N)c2ccc3c(c2)c(C=O)cn3C)cc(OC)c1OC
- IC50 at 72 h [3]: 41.3 nM
- IC50 at 72 h [1]: 70.9 nM
- IC50 at 72 h [2]: 81.3 nM
- IC50 [7]: 31.4 nM
- IC50 (CAKI-1): 66.2 nM
- IC50 [8]: 12.5 nM
- IC50 (MES-SA): 32.5 nM

- IC50 (HeLa [4]): 2560 nM
SMILES: COc1cc(S(=O)(=O)Nc2ccc3c(c2)C=CC3CC#N)cc(OC)c1OC (stereo unspecified)

- IC50 (A-375): 3.5 nM
- IC50 (MDA-MB-468): 0.4 nM
- IC50 (HT-1080): 0.3 nM
- inhibition (Tubulin (Homo sapiens)): Active
- IC50 (BT-474): 2.9 nM
- IC50 (HeLa [6]): 1 nM
- IC50 (MCF7): 4.2 nM
SMILES: CC[C@]1(O)C[C@H]2CN(CCc3c([nH]c4ccccc34)[C@@](C(=O)OC)(c3cc4c(cc3OC)N(C=O)[C@H]3[C@@](O)(C(=O)OC)[C@H](OC(C)=O)[C@]5(CC)C=CCN6CC[C@]43[C@@H]65)C2)C1 [VINCRISTINE]
- IC50 at 72 h [3]: 7.6 nM
- IC50 at 72 h [1]: 25.8 nM
- IC50 at 72 h [2]: 2.8 nM
- IC50 [7]: 4.5 nM
- IC50 (CAKI-1): 5.7 nM
- IC50 [8]: 0.2 nM
- IC50 (MES-SA): 4.9 nM

- IC50 (HeLa [4]): > 1000 nM
SMILES: COc1cc(S(=O)(=O)N(CCCCBr)c2ccc3c(ccn3C)c2)cc(OC)c1OC

- IC50 (A-375): 86.8 nM
- IC50 (MDA-MB-468): 31.6 nM
- IC50 (HeLa [4]): 24.4 nM
- IC50 (HT-1080): 65.8 nM
- IC50 (HeLa [5]): 27.2 nM
- IC50 (BT-474): 71.1 nM
- IC50 (HeLa [6]): 77.3 nM
- IC50 (MCF7): 60.8 nM
- IC50 (cells): 34.4 nM
- IC50 (HeLa [9]): 34.5 nM
SMILES: COc1cc(S(=O)(=O)N(CC#N)c2ccc3c(c2)c(C#N)cn3C)cc(OC)c1OC
- IC50 at 72 h [3]: 76.3 nM
- IC50 at 72 h [1]: 17.7 nM
- IC50 at 72 h [2]: 70.5 nM
- IC50 [7]: 81.3 nM
- IC50 (CAKI-1): 29.5 nM
- IC50 [8]: 32.3 nM
- IC50 (MES-SA): 80.3 nM

- IC50 (HeLa [4]): > 1000 nM
SMILES: COc1cc(S(=O)(=O)N(CCCCCCN2CCOCC2)c2ccc3c(ccn3C)c2)cc(OC)c1OC

- IC50 (HeLa [4]): > 1000 nM
SMILES: COc1cc(S(=O)(=O)N(CCCCCBr)c2ccc3c(ccn3C)c2)cc(OC)c1OC

- IC50 (HeLa [4]): > 1000 nM
SMILES: CCOC(=O)CCCN(c1ccc2c(ccn2C)c1)S(=O)(=O)c1cc(OC)c(OC)c(OC)c1

- IC50 (HeLa [4]): > 1000 nM
SMILES: COc1cc(S(=O)(=O)N(C)c2ccc3c(c2)c(C(=O)O)cn3C)cc(OC)c1OC

- IC50 (HeLa [4]): 464 nM
SMILES: COc1cc(S(=O)(=O)N(Cc2ccc(N)cc2)c2ccc3c(ccn3C)c2)cc(OC)c1OC

Reference: ChEMBL document CHEMBL5579852, “Promising anti-proliferative indolic benzenesulfonamides alter mechanisms with sulfonamide nitrogen substituents” (Eur J Med Chem, 2024)
